Molecular target: Corticotropin-releasing factor receptor 2 (Sus scrofa)
Assay: Inhibition of [125I]- sauvagine binding to corticotropin releasing factor receptor 2 of porcine choroid plexus

- IC50: > 10 µM
Compound: CCc1nc2c(n1C(C1CC1)C1CC1)C(=O)N(C)CN2c1ccc(Cl)cc1Cl [3-(2,4-Dichloro-phenyl)-7-dicyclopropylmethyl-8-ethyl-1-methyl-1,2,3,7-tetrahydro-purin-6-one]
